Measured values taken from patent US20160058829A1, “ANTI-FIBROTIC PEPTIDES AND THEIR USE IN METHODS FOR TREATING DISEASES AND DISORDERS CHARACTERIZED BY FIBROSIS” (Thrasos Innovation, Inc., priority 2011, published 2016).
Entries after “also recorded” stand apart in the source; their conditions may differ. Where two headings read alike, the source gives them in different places. Blank lines part the entries; values can stand above or below the molecule they belong to. Positions of bridges follow the written chain, without caps; N, C: chain ends.

Key:
[1] = In vitro stability in rat blood, plasma and PBS-mannitol buffer (LC-MS-MS); format: in vitro ADME; conditions: 0.1 mg/mL, 37° C.
Protocol: FIG. 46 In vitro stability of THR-123. THR-123 was spiked into freshly harvested rat blood (male Sprague-Dawley, 0.35 kg BW) and plasma, and PBS-mannitol buffer solution at a final concentration of 0.1 mg/mL. Blood, plasma and buffer master tubes were incubated at 37° C. for up to 6 h and duplicate samples of 500 μl (blood) and 250 μl (plasma and […]) were collected for analysis at 0, 7.5, 15, 30, 60, 120, 240 and 360 min. Samples were analyzed for THR-123 using an LC-MS-MS method having a limit of detection of 1 μg/ml.
The stability of THR-123 in whole blood and plasma was tested in vitro. In PBS-mannitol buffer, THR-123 was stable for over 400 minutes (FIG. 46).

[2] = molecular target: T1, Alk-3 (Homo sapiens, UniProt P36894); test: Radio-ligand (125I-BMP7) receptor binding assay, Alk-3 ECD
T1 construct: Highly purified extra-cellular domain (ECD) of Alk-3 or Alk-6 (expressed as a fusion protein with Fc domain) served as a receptor
T1 sequence (P36894 24-152 limits assumed, species assumed): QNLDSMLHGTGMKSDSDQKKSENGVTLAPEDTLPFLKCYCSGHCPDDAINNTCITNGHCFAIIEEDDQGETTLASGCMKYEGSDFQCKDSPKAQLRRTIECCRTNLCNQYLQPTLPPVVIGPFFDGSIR
From the text: FIG. 45A-FIG. 45G Pharmacokinetics of THR-123. FIG. 45A. BMP7 structure figure with the residue weights resulting from the analysis mapped on to it. FIG. 45B, FIG. 45C. Radio-ligand receptor binding assays specific for individual type I receptors, Alk-3 (FIG. 45B) and Alk-6 (FIG. 45C). Highly purified extra-cellular domain (ECD) of Alk-3 or Alk-6 (expressed as a fusion protein with Fc domain) served as a receptor. In each assay purified receptor was immobilized on each well and peptide analog or unlabeled BMP7 was added, followed by ^125I-labeled BMP7. Radiolabeled BMP7 complex was counted in an auto-gamma counter. Results were expressed as the mean±s.e.m. […] Concentration of THR-123 in systemic circulation of Wistar rats following iv injection of THR-123 (^125I-Tyr) via the tail vein determined by total radioactivity measurement. […] Six hours after intravenous administration of ^125I labeled-THR-123 in rats at a dose of 6.25 mg/kg-body weight, tissues were harvested and analyzed by automatic gamma well counter. […] Radioactivity of orally administrated ^125I labeled-THR-123 at a dose of 5 mg/kg body weight was localized in the kidney between 1 and 6 hours after administration and peaked at around 3 hours.
First, specific affinity of the extra cellular domains (ECD) of the several type I receptors of BMPs to THR-123 was analyzed. […]

[3] = system: p38 MAPK; test: p38 MAPK phosphorylation in HK-2 cells; format: cell-based, human
From the text: The significance of p38 MAPK is that this protein is implicated as a non-Smad-dependent pathway for TGF-β-dependent EMT. Other non-Smad-dependent pathways implicated in TGF-β-dependent EMT include RhoA, Ras, PI3 kinase, Notch, and Wnt signaling pathways.
It has been shown that regulation p38 MAPK activity by pro-inflammatory factors has implications in fibrosis.

[4] = system: Streptozotocin-induced diabetic CD-1 mice; test: STZ-induced diabetic nephropathy study (THR-123 month 5-6, BMP-7 month 1-6); format: in vivo; conditions: for net increase in FSP1 (mesenchymal tissue) at six months versus normal animals: BMP7 five months, SEQ ID NO: 1 final month, untreated 27 and 29 times; for interstitial fibrosis (collagen accumulation, Masson's trichrome): THR-123 5 mg/kg/day oral; for increase in BUN level relative to normal animals: untreated 85% at 5 months, 94% at 6 months
Protocol: FIG. 17 depicts the STZ experimental protocol behind the study discussed in Example 2. […] Mice were given a single intraperitoneal injection of Streptozotocin (STZ) in sodium citrate buffer (pH 4.5) at a dose of 200 mg/kg. Blood glucose was measured by tail vein sampling using the glucose oxidase enzymatic test (Medisense glucometer, Abbott Laboratories, Bedford, Mass.). Diabetic nephropathy was evaluated in groups of mice killed at the end of 5 or 6 months (vehicle control groups) or 6 months (THR123 or BMP-7 group) after STZ injection. A group of STZ injected mice received oral administration of Thrasos compound daily at a dose of 5 mg/kg body weight for a month, from month 5 to month 6 after STZ injection. BMP-7 was administered intraperitoneally at a dose of 300 μg/kg body weight from month 1 to month 6.
Analysis of fibrosis in the H&E and Masson's trichrome stain in FIG. 18 through 22 from the mouse STZ study outlined in FIG. 17. Using the same image color analysis method used above to quantitate E-cadherin fluorescence for the in vitro EMT experiments, the images were quantitated, and the results shown in FIG. 23.
Eight weeks old male CD-1 mice are used all the diabetic experiment. Mice are performed single intraperitoneal (i.p.) injection of streptozotocin (STZ: 200 mg/Kg). Induction of diabetes is defined as blood glucose level >16 mM by 2 weeks after STZ injection. One month after induction of diabetes, mice were separated into three groups (BMP7, vehicle and non-treatment) and BMP7 (i.p. 300 μg/Kg/every other day) or vehicle injection was initiated. Five months after induction of diabetes, THR-123 (p.o. 5 mg/Kg/day) administration is initiated in diabetic mice. Mice are sacrificed at 5 (before the treatment) or 6 months after induction of diabetes.

[5] = THR-123 month 5-6, BMP-7 month 1-6
[6] = THR-123 month 5-6, BMP-7 month 1-6, listed as THR-123

Molecule: (H)-CYFDDSSNVLCKKYRS-(OH) (H-CYFDDSSNVLCKKYRS-OH; disulfide 1-11; SMILES CC(C)C[C@@H]1NC(=O)[C@H](C(C)C)NC(=O)[C@H](CC(N)=O)NC(=O)[C@H](CO)NC(=O)[C@H](CO)NC(=O)[C@H](CC(=O)O)NC(=O)[C@H](CC(=O)O)NC(=O)[C@H](Cc2ccccc2)NC(=O)[C@H](Cc2ccc(O)cc2)NC(=O)[C@@H](N)CSSC[C@@H](C(=O)N[C@@H](CCCCN)C(=O)N[C@@H](CCCCN)C(=O)N[C@@H](Cc2ccc(O)cc2)C(=O)N[C@@H](CCCNC(=N)N)C(=O)N[C@@H](CO)C(=O)O)NC1=O) [SEQ ID NO: 1]
half-life in rat plasma [1]: 5.97 h
half-life in rat whole blood [1]: 1.17 h
binding to ALK3 (competition with 125I-BMP7) ([2]; listed as THR-123): competes with BMP7; also recorded: binds
TNF alpha induced p38 phosphorylation ([3]; HK-2 cells): effectively inhibited
basal p38 phosphorylation ([3]; HK-2 cells): effectively inhibited
potency on p38 phosphorylation relative to SB 203580 ([3]; THR-123 1 uM versus specific inhibitor 10 uM): as potent as 10 uM of the specific inhibitor
net increase in FSP1 (mesenchymal tissue) at six months versus normal animals [4]: 2 times
interstitial fibrosis (collagen accumulation, Masson's trichrome) ([4]; month 5 to 6, listed as THR123, 5 mg/kg/day): reduced renal fibrosis
interstitial fibrosis (collagen accumulation, Masson's trichrome) ([4]; month 5 to 6, listed as THR-123, 5 mg/kg/day): lower than it was at 5 months; also recorded: markedly reduced
glomerular surface area [4, 5]: little effect
relative interstitial volume ([4]; THR-123 month 5-6, BMP-7 month 1-6, listed as THR123): decreased interstitial volume
BUN levels / renal function [4, 6]: reversed renal dysfunction; also recorded: dropped to those of control animals
damaged tubules / tubular atrophy [4, 6]: inhibited tubular atrophy and interstitial volume increase; also recorded: reversed tubular atrophy and interstitial volume expansion; also recorded: markedly reduced
mesangial matrix expansion [4, 6]: inhibited mesangium expansion; also recorded: reversed mesangial matrix expansion; also recorded: significantly reduced
relative interstitial volume [4, 6]: markedly reduced
EMT program (FSP1 and E-cadherin double positive tubules) ([4]; mouse, in vivo): inhibited EMT program
macrophage infiltration (Mac-1) ([4]; mouse, in vivo): significantly reduced the infiltration by macrophages
phospho-Smad1/5 accumulation in kidney ([4]; mouse, in vivo): increased accumulation of phospho-Smad1/5
FSP-1 marker concentration relative to levels at 5 and 6 months ([4]; one month treatment, month 5 to 6): less than 1/10
increase in mesangial matrix at 6 months ([4]; untreated 64% at 5 months, 104% at 6 months): 37%
increase in BUN level relative to normal animals [4]: 17%
increase in BUN level relative to normal animals ([4]; listed as THR-123): 12%

binding to ALK3 (competition with 125I-BMP7) [2]: binds
B1: BMP-7: bone morphogenetic protein-7; recombinant human BMP7, positive control (protein)
chain: STGSKQRSQNRSKTPKNQEALRMANVAENSSSDQRQACKKHELYVSFRDLGWQDWIIAPEGYAAYYCEGECAFPLNSYMNATNHAIVQTLVHFINPETVPKPCCAPTQLNAISVLYFDDSSNVILKKYRNMVVRACGCH
basal p38 phosphorylation ([3]; HK-2 cells): inhibited p38 phosphorylation
net increase in FSP1 (mesenchymal tissue) at six months versus normal animals [4]: 3 times
BUN levels / renal function [4, 5]: reversed renal dysfunction; also recorded: dropped to those of control animals
damaged tubules / tubular atrophy [4, 5]: inhibited tubular atrophy and interstitial volume increase
mesangial matrix expansion [4, 5]: inhibited mesangium expansion; also recorded: significantly reduced
relative interstitial volume [4, 5]: markedly reduced
damaged tubules / tubular atrophy ([4]; THR-123 month 5-6, BMP-7 month 1-6, listed as BMP): halts the progression
mesangial matrix expansion ([4]; THR-123 month 5-6, BMP-7 month 1-6, listed as BMP7): unaffected
EMT program (FSP1 and E-cadherin double positive tubules) ([4]; mouse, in vivo): inhibited EMT program
macrophage infiltration (Mac-1) ([4]; mouse, in vivo): significantly reduced the infiltration by macrophages
increase in BUN level relative to normal animals [4]: 2%
